Data reported in US20190151340A1, “POLYMERIC NAN[…]” (priority 2017, published 2019).

Key:
[1] = Comparative toxicity in wild-type mice (body weight, lethality); assay type: in vivo, CD1 wild type mice
Procedure: The effect of nanoparticles in mitigating the toxicity of bortezomib was examined in wild-type mice. Different doses of bortezomib alone (1.5, 3, 6, 9 and 12 mg/kg) or bortezomib-nanoparticles (NP) (0.9, 1.8, 3.6, 5.4 and 7.2 mg/kg) were injected into CD1 wild type. Three mice were used in each group of bortezomib alone and bortezomib-NP groups, body weights, food and water uptake were measured every day for 22 days.

[2] = test system: human tumor xenograft models; settings: Albanell and Adams 2002; cited from earlier work
[3] = test system: relapsed and refractory multiple myeloma; settings: Richardson et al. 2003, Phase 2; cited from earlier work

SMILES: CC(C)C[C@H](NC(=O)[C@H](Cc1ccccc1)NC(=O)c1cnccn1)B(O)O [bortezomib, N-2-pyrazinecarbonyl-L-phenylalanine-L-leucineboronic acid]
- survival ([1]; 6 mg/kg dose): two
- survival ([1]; 9 mg/kg dose): died after Day 1
- antitumor activity [2]: significant antitumor activity
- effectiveness in patients [3]: effectiveness in treating relapsed and refractory multiple myeloma
